Measured values taken from ChEMBL document CHEMBL5543075, “Phenoxytacrine derivatives: Low-toxicity neuroprotectants exerting affinity to ifenprodil-binding site and cholinesterase inhibition” (Eur J Med Chem, 2024).
Calls of active or inactive are those of the source. The calls are words filed in the database; no cut-off is given here.

Experiments:
Rattus norvegicus [1] = experiment: Antipsychotic activity in Wistar rat assessed as effect on locomotor activity at 0.2 mg/kg, ip measured after 10 mins by open field test; type: functional, organism-based
Rattus norvegicus [2] = experiment: Antipsychotic activity in Wistar rat assessed as effect on pre-pulse inhibition of acoustic startle response at 0.3 mg/kg, ip measured after 10 mins by pre-pulse inhibition test; type: functional, organism-based
[3] = Cytotoxicity against CHO-K1 cells incubated for 24 hrs by MTT assay; type: toxicity, cell-based, Cricetulus griseus; settings: Chinese hamster
Acetylcholinesterase = Acetylcholinesterase (Homo sapiens, UniProt P22303); experiment: Inhibition of human AChE by spectrophotometric Ellman's method
Acetylcholinesterase, sequence (P22303 whole entry): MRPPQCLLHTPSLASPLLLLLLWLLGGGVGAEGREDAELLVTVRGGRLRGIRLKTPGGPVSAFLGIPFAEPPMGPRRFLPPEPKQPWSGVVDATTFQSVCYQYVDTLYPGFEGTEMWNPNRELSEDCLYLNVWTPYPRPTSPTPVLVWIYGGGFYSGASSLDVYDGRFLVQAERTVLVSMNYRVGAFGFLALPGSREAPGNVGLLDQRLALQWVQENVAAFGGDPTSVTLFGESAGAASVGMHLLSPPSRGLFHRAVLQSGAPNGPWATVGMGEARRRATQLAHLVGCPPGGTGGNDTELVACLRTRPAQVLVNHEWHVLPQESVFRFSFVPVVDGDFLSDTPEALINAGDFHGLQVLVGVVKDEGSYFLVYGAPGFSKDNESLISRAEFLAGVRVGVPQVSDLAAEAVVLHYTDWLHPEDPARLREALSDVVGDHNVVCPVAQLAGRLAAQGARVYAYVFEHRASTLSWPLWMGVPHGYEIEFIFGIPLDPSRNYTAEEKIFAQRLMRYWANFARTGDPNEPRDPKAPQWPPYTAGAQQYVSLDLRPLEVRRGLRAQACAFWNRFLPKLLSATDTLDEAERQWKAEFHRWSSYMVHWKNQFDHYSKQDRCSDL

[4] = molecular target: T1, Glutamate NMDA receptor; GRIN1/GRIN2B (Homo sapiens, UniProt Q05586+Q13224); experiment: Inhibition of recombinant human GluN1/GluN2B receptor expressed in HEK293 cells assessed as reduction in glutamate induced current at 1 uM at -60 mV holding potential by electrophysiology assay relative to control; type: cell-based
Cholinesterase = Cholinesterase (Homo sapiens, UniProt P06276); experiment: Inhibition of human BChE by spectrophotometric Ellman's method
Cholinesterase, sequence (P06276 whole entry): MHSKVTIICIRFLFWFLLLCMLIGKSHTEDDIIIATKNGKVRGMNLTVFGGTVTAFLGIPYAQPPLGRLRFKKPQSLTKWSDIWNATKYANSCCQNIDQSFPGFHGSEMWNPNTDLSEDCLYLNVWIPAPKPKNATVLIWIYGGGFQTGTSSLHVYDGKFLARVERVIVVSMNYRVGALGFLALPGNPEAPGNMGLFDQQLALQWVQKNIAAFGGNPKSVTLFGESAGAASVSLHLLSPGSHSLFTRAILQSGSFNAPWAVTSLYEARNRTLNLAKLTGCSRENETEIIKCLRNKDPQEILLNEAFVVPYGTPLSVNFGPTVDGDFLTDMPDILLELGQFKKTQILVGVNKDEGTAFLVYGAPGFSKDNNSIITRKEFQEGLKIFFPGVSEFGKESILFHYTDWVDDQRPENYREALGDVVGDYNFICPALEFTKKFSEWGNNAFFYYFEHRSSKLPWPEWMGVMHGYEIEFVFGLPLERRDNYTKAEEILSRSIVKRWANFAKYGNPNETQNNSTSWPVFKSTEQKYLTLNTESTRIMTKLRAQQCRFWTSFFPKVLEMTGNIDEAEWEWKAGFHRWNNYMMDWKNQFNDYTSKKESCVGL

Rattus norvegicus [5] = experiment: Antialzheimer activity against scopolamine-induced cognitive impairment in Wistar rat assessed as increase in number of platform crossing at 2 mg/kg, ip measured upto 4 days by morris water maze test; type: functional, organism-based; settings: time <= 4.0 day
Rattus norvegicus [6] = experiment: Antialzheimer activity against scopolamine-induced cognitive impairment in Wistar rat assessed as decrease in mean distance from platform at 2 mg/kg, ip measured upto 4 days by morris water maze test (reference value: 51.7 +/-1.5 cm); type: functional; settings: time <= 4 day
[7] = Toxicity in Wistar rat assessed as no observed adverse effect level (NOAEL) at 10 mg/kg, ip; type: organism-based; settings: in vivo
[8] = molecular target: T1, Glutamate NMDA receptor; GRIN1/GRIN2B; experiment: Inhibition of recombinant wild type human GluN1/GluN2B receptor expressed in HEK293 cells assessed as reduction in glutamate induced current at -60 mV holding potential by electrophysiology assay; type: cell-based
in vitro [9] = settings: human, liver microsomes
Description: Metabolic stability in human liver microsomes assessed as intrinsic clearance at 3 uM measured upto 45 min in presence of NADPH regenerating system by LC-MS analysis

Hippocampal neurone = experiment: Neuroprotective activity against NMDA-induced cell injury in rat Hippocampal neuron cells assessed as decrease in damage score at 30 uM measured after 24 hrs by FJB staining based microscopy; type: functional
Rattus norvegicus [10] = experiment: Antipsychotic activity in Wistar rat assessed as effect on pre-pulse inhibition of acoustic startle response at 2 mg/kg, ip measured after 10 mins by pre-pulse inhibition test; type: functional, organism-based
Rattus norvegicus [11] = experiment: Antialzheimer activity against scopolamine-induced cognitive impairment in Wistar rat assessed as decrease in latency to reach platform at 2 mg/kg, ip measured upto 4 days by morris water maze test; type: functional, organism-based; settings: time <= 4.0 day
[12] = molecular target: Glutamate NMDA receptor; GRIN1/GRIN2A (Homo sapiens, UniProt Q05586+Q12879); experiment: Inhibition of recombinant wild type human GluN1/GluN2A receptor expressed in HEK293 cells assessed as reduction in glutamate induced current at -60 mV holding potential by electrophysiology assay; type: cell-based
Glutamate NMDA receptor; GRIN1/GRIN2A, sequence (Q12879 whole entry, other chains not shown): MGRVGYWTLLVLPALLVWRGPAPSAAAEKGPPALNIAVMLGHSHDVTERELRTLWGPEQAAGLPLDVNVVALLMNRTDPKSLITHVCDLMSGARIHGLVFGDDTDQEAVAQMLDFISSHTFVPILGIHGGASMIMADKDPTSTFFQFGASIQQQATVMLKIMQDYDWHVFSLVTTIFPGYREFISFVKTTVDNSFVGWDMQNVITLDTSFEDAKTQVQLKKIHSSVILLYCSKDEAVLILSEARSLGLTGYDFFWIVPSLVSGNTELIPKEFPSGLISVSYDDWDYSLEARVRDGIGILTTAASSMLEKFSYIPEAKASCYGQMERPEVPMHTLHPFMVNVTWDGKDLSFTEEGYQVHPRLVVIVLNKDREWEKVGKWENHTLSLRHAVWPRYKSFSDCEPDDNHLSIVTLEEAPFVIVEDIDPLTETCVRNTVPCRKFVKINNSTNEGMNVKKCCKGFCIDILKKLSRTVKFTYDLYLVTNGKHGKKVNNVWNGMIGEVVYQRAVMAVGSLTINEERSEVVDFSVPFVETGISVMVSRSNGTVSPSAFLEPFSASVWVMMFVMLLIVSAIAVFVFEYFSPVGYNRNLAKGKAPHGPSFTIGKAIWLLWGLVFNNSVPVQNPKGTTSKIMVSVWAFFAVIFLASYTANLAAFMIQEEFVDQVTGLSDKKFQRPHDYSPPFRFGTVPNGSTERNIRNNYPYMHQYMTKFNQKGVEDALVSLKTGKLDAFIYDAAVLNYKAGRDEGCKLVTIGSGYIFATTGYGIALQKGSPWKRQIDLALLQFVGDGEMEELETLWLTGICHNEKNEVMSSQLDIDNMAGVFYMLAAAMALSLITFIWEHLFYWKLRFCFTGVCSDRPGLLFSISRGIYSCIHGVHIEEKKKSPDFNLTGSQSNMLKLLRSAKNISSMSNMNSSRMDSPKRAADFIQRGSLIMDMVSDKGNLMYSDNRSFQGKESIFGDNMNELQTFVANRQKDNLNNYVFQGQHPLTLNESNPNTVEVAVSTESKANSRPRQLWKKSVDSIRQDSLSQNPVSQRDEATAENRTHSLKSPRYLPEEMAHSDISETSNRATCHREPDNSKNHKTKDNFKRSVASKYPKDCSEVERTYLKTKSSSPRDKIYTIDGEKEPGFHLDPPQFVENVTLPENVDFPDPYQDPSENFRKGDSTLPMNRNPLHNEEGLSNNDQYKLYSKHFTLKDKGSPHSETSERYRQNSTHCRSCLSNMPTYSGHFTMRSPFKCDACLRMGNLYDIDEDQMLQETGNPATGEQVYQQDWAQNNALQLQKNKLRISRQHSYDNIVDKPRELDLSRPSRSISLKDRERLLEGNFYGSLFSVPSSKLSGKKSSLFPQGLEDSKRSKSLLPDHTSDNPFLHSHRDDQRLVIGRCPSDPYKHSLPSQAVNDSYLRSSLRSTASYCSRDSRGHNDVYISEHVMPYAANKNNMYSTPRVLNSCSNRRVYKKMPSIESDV

[13] = Inhibition of recombinant human GluN1 deltaATD/GluN2B receptor expressed in HEK293 cells assessed as reduction in glutamate induced current at -60 mV holding potential by electrophysiology assay; type: cell-based
[14] = Toxicity in Wistar rat assessed as no observed adverse effect level (NOAEL) at 20 mg/kg, ip measured after 10 to 15 mins; type: organism-based; settings: in vivo, time 10-15 min
in vitro [15] = settings: human, liver microsomes; remark: listed apart in the source
Description: Metabolic stability in human liver microsomes assessed as half life at 3 uM measured upto 45 min in presence of NADPH regenerating system by LC-MS analysis

Rattus norvegicus [16] = experiment: Antipsychotic activity in Wistar rat assessed as effect on locomotor activity at 2 mg/kg, ip measured after 10 mins by open field test; type: functional, organism-based

Compound	IC50 at 24 h [3] [µM]	IC50 (Acetylcholinesterase) [µM]	inhibition [4] [%]	IC50 (Cholinesterase) [µM]	other results
C[C@]12N[C@H](Cc3ccccc31)c1ccccc12					Activity (Rattus norvegicus [1]): Active; Activity (Rattus norvegicus [2]): Active
Cc1cc(C)cc(Oc2ccc3nc4c(c(N)c3c2)CCCCC4)c1	30	0.99	7.8	5.27	
COc1ccccc1Oc1ccc2nc3c(c(N)c2c1)CCCCC3	74	9.62	57.6	5.48	
Nc1c2c(nc3ccc(Oc4ccc(Cl)cc4)cc13)CCCC2	12	2.92	14.2	3.32	
COc1cccc(Oc2ccc3nc4c(c(N)c3c2)CCCCC4)c1	21	4.25	7.1	2.62	
Cc1ccccc1Oc1ccc2nc3c(c(N)c2c1)CCCCC3	26	5.8	8.8	4.17	
Cc1ccccc1Oc1ccc2nc3c(c(N)c2c1)CCC3.Cl	78	28.2	16.6		Activity (Rattus norvegicus [5]): Active; Activity (Rattus norvegicus [6]): 59.5 cm
Cc1cccc(Oc2ccc3nc4c(c(N)c3c2)CCCCC4)c1	13	12.3	14.8	2.74	
CC(=O)c1ccc(Oc2ccc3nc4c(c(N)c3c2)CCC4)cc1	69	5.76	9.5	16.5	
Cc1cc(C)cc(Oc2ccc3nc4c(c(N)c3c2)CCC4)c1	39	3.72	9.6	5.48	
COc1cccc(Oc2ccc3nc4c(c(N)c3c2)CCC4)c1	85	5.25	16	7.96	
Cc1ccc(Oc2ccc3nc4c(c(N)c3c2)CCC4)cc1	76	8.36	18.7	7.34	
Nc1c2c(nc3ccc(Oc4ccccc4)cc13)CCCCC2	38	5.36	34.9	1.4	
COc1ccc(Oc2ccc3nc4c(c(N)c3c2)CCC4)cc1	81	4.24	22.7	14.5	
Cc1ccc(Oc2ccc3nc4c(c(N)c3c2)CCCCC4)cc1	140	3.79	11.9	2.78	
Cc1cc(C)cc(Oc2ccc3nc4c(c(N)c3c2)CCCC4)c1	13	1.62	8.2	3.88	
COc1ccc(Oc2ccc3nc4c(c(N)c3c2)CCCC4)cc1	26	2.9	33.2	7.26	
COc1ccccc1Oc1ccc2nc3c(c(N)c2c1)CCC3.Cl	68	8.52	35	5.48	Activity [7]: Non-Toxic; IC50 [8]: 2400 nM; microsomal CLint at 0.75 h, 3 µM (in vitro [9]): 20 µL/min/mg; Activity (Hippocampal neurone): Active; Activity (Rattus norvegicus [10]): inactive; Activity (Rattus norvegicus [11]): Active; IC50 [12]: 5.1 µM; IC50 [13]: 5.2 µM; Activity [14]: Toxic; half-life at 0.75 h, 3 µM (in vitro [15]): 69.3 min; Activity (Rattus norvegicus [16]): inactive
CC(C)(C)c1ccc(Oc2ccc3nc4c(c(N)c3c2)CCCCC4)cc1	9	71.6	10.1	2.51	
COc1cccc(Oc2ccc3nc4c(c(N)c3c2)CCCC4)c1	27	2.64	14.7	2.76	
Cc1cccc(Oc2ccc3nc4c(c(N)c3c2)CCCC4)c1	20	9.19	21.2	3.66	
COc1ccc(Oc2ccc3nc4c(c(N)c3c2)CCCCC4)cc1	28	3.63	29.6	2.74	
Cc1ccc(Oc2ccc3nc4c(c(N)c3c2)CCCC4)cc1	20	3.29	18	1.95	
Nc1c2c(nc3ccc(Oc4ccccc4)cc13)CCC2	55	6.42	30.3	2.93	
Cc1ccccc1Oc1ccc2nc3c(c(N)c2c1)CCCC3	25	3.78	19.3	4.15	
Cc1cccc(Oc2ccc3nc4c(c(N)c3c2)CCC4)c1	34	5.28	18.1	2.81	
CC(C)(C)c1ccc(Oc2ccc3nc4c(c(N)c3c2)CCC4)cc1	11	2.78	6.7	3.11	
Nc1c2c(nc3ccc(Oc4ccc(Cl)cc4)cc13)CCC2	28	5.07	8.7	3.6	
Nc1c2c(nc3ccc(Oc4ccc(Cl)cc4)cc13)CCCCC2	90	4.22	12	1.85	
CC(C)(C)c1ccc(Oc2ccc3nc4c(c(N)c3c2)CCCC4)cc1	5.1	1.96	16	6.61	
